Results reported in patent US7476688B2, “Cyclic amidine derivatives” (EISAI R&D Management Co., Ltd., priority 2001, dated 2009).
Counter-ions that a name gives are not always drawn.

Experiments:
[1] = molecular target: T1, PAR1 thrombin receptor (Homo sapiens, UniProt P25116); assay: Receptor binding assay ([3H] high affinity TRAP, platelet membrane); conditions: displacement of 25 nM [3H] high affinity TRAP from platelet membrane, 37° C., 1 hour; read-out: RBA IC50
T1 construct: centrifuged at 40,000 g for 60 minutes to yield platelet membrane; from tissue; host or cells: platelet membrane from donor blood
T1 sequence (P25116 22-425): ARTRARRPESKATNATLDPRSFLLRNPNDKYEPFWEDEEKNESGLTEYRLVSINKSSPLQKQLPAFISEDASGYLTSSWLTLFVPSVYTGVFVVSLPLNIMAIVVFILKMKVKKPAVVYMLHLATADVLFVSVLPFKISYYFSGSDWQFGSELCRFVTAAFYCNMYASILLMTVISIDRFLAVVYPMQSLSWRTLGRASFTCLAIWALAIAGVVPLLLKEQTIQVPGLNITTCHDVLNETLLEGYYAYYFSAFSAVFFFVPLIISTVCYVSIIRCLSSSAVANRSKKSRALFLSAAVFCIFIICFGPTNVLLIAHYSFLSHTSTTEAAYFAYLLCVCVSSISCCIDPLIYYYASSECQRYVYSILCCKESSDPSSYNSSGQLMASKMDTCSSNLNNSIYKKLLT
Experimental: Blood was sampled from a healthy adult who had taken no drugs for one week, and 3.8% citric acid (a ratio of 1:9 with respect to the blood) was added as an anticoagulant. The mixture was then centrifuged at 100 g for 10 minutes at room temperature to yield platelet rich plasma (PRP). The platelet precipitate obtained, by centrifuging the PRP was homogenized with a Dounce homogenizer, and then centrifuged at 40,000 g for 60 minutes to yield platelet membrane. The platelet membrane was suspended in a solution prepared by adding DMSO (dimethyl sulfoxide) at 1% concentration to Buffer 1: a 50 mM Tris-HCl buffer containing 10 mM MgCl2 and 1 mM EGTA (ethylene glycol tetraacetic acid), and the suspension was stored at −80° C. Bovine albumin and DMSO were added to Buffer 1 at 0.1% and 20%, respectively, to make a preparation solution for the test compound. […] Next, 30 μl of liquid scintillator was added for measurement of the radioactivity of the plate using a Top Counter (Packard), the value of the radioactivity in the presence of the test compound minus non-specific binding portion was divided by the specific binding value (the value of the binding in the absence of the compound minus the non-specific binding portion) to determine the binding ratio, from which the IC50 value was calculated. […]

[2] = system: platelet rich plasma (PRP), thrombin-induced platelet aggregation; assay: Inhibitory effects on platelet aggregation using platelet rich plasma (thrombin-induced); type: cell-based; conditions: Homo sapiens, 0.1 h, thrombin 0.5-1.5 units/ml, area under aggregation curve over 6 minutes, read-out: Thr IC50
Experimental: Blood was sampled from a healthy adult who had taken no drugs for one week, and 3.8% citric acid (a ratio of 1:9 with respect to the blood) was added as an anticoagulant. The mixture was then centrifuged at 100 g for 10 minutes at room temperature to yield platelet rich plasma (PRP). The PRP-removed blood was further centrifuged at 1000 g for 10 minutes to yield platelet poor plasma (PPP). The number of platelet was counted using a multi-parameter automatic hemocyte counter (K4500, Sysmex), and the PRP was diluted to approximately 300,000/μl with the PPP. The platelet aggregation activity was determined in the following manner using an Aggregometer (MC Medical). GPRP-NH2 (final concentration 1 mM, 25 μl) was added as a fibrin polymerization inhibitor to the PRP (175 μl), after which Ca-free Tyrode solution (control) or the test compound suspension (25 μl) at different concentrations was added, incubation was performed at 37° C. for 3 minutes and then 25 μl of thrombin at the minimum concentration required to produce maximum aggregation (final concentration: optimum concentration among 0.5-1.5 units/ml) was added, for initiation of platelet aggregation. […] After addition of thrombin, the aggregation reaction was examined for 6 minutes and the areas under the aggregation curves were compared to determine the inhibition ratio, from which the IC50 value was calculated.

[3] = system: Vascular smooth muscle cells (rSMC); assay: Rat smooth muscle cell proliferation assay (thrombin-stimulated, MTT); type: cell-based; conditions: 48 h, thrombin 0.1 unit/ml, 2 days, MTT OD 590 nm, read-out: Rat SMC IC50
Experimental: Vascular smooth muscle cells (rSMC) were isolated from male SD rat aorta by the explant method. DMEM medium (Sigma) containing 10% fetal bovine serum (GibcoBRL), streptomycin and penicillin was used as the proliferation medium, and subculture was carried out at 37° C. in the presence of 5% CO2. Culture was initiated after adding 100 μl of rSMC suspension in proliferation medium at a concentration of 1×10^4 cells/ml, to a 96-well plate. After 3 days, cells were rinsed twice with 100 μl of DMEM medium, the medium was exchanged with 100 μl of DMEM medium containing 0.1% albumin (starvation medium), and serum starvation was initiated. […]
Upon adding 20 μl of MTT (3-[4,5-dimethylthiazol-2-yl]-2,5-diphenyltetrazolium bromide) dissolved in DPBS to 7.5 mg/ml, incubation was continued for 4 hours. […] As an index of cell proliferation, the OD 590 nm was measured using a plate reader (EL340, BIO-TEK Instruments Inc.), and the control OD value (OD value in the absence of the test compound) minus the OD value in the presence of the test compound was divided by the control OD value minus the blank OD value (OD value without thrombin stimulation) to determine the inhibition ratio, from which the value was calculated.

## CCCC1CN(CC(=O)c2cc(N(C)S(C)(=O)=O)c(O)c(C(C)(C)C)c2)C(=N)[C@@H]1c1ccccc1 (stereo in doubt) [Example 3, N-{3-tert-Butyl-2-hydroxy-5-[2-((3S,4S)-2-imino-3-phenyl-4-propyl-pyrrolidin-1-yl)-acetyl]-phenyl}-N-methyl-methanesulfonamide hydrobromide]
[1]
  IC50: 0.66 µM
[2]
  IC50: 2.3 µM
[3]
  IC50: 2.5 µM
